Source: ChEMBL document CHEMBL5678800 (Mol Cancer Ther, 2009)
Calls of active or inactive are those of the source. The calls are words filed in the database; no cut-off is given here.

Key:
[1] = Antitumor activity against mouse IGF-1R-Sal cells xenografted in nude mouse assessed as tumor growth inhibition at 3.1 to 12.5 mg/kg, po administered for 4 days relative to control; assay type: functional; conditions: dose 3.1-12.5 mg/kg, time 4 day
[2] = tested on: JJN-3; assay: Antitumor activity against human JJN-3 cells xenografted in nude mouse assessed as tumor growth inhibition at 25 mg/kg, po administered for 14 days relative to control; assay type: functional; conditions: JJN-3, 336 h, time 14 day, read-out: TGI
[3] = tested on: IGF-1R-Sal; assay: In vivo inhibition of IGF-1R phosphorylation in mouse IGF-1R-Sal cells xenografted in nude mouse at 12.5 mg/kg, po administered for 30 mins by Western blotting analysis; assay type: functional, organism-based
[4] = molecular target: T1, Protein kinase C zeta type (Homo sapiens, UniProt Q05513); assay: Inhibition of recombinant PKCzeta (unknown origin) incubated for 60 mins in presence of ATP by electrophoretic caliper fluorescence analysis
T1 sequence (Q05513 whole entry): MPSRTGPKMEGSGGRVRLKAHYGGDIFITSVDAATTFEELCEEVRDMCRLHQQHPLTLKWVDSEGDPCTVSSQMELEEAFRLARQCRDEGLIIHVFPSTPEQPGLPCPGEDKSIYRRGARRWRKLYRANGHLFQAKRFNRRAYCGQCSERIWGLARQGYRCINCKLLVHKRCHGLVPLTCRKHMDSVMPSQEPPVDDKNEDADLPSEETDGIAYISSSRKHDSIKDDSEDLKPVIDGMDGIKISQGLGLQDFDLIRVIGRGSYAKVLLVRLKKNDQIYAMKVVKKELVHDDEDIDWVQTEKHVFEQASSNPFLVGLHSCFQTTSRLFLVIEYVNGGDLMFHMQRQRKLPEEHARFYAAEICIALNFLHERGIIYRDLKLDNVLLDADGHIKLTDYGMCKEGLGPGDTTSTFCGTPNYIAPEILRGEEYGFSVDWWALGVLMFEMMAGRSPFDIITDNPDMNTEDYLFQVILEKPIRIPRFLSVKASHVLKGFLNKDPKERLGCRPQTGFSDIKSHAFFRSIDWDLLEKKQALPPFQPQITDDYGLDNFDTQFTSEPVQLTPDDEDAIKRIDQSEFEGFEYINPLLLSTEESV

[5] = tested on: GEO; assay: Antitumor activity against human GEO cells xenografted in nude mouse assessed as tumor growth delay time at 12.5 mg/kg, po administered for 17 days relative to control; assay type: functional; conditions: time 17 day
[6] = tested on: Mus musculus; assay: Anti-diabetic activity against nude mouse xenografted with mouse IGF-1R-Sal cells assessed as increased serum glucose level at 25 mg/kg, po administered for 2 hrs by oral glucose tolerance test (Rvb= 97.40 +/- 5.0 mg/dl); assay type: functional
[7] = tested on: Rh41; assay: Antitumor activity against human Rh41 cells xenografted in nude mouse assessed as tumor growth inhibition at 12 to 50 mg/kg, po administered for 21 days relative to control; assay type: functional; conditions: dose 12-50 mg/kg, time 21 day
[8] = tested on: Mus musculus; assay: Anti-diabetic activity against nude mouse xenografted with mouse IGF-1R-Sal cells assessed as insulin level at 3.125 mg/kg, po administered for 2 hrs by ELISA analysis (Rvb= 0.39 +/- […]); assay type: functional
[9] = tested on: Mus musculus; assay: Anti-diabetic activity against nude mouse xenografted with mouse IGF-1R-Sal cells assessed as insulin level at 12.5 mg/kg, po administered for 2 hrs by ELISA analysis (Rvb= 0.39 +/- […]); assay type: functional
[10] = Toxicity in nude mouse xenografted with human GEO cells assessed as mortality at 12.5 mg/kg, po administered for 3 days in presence of cetuximab at 0.125 mg/kg relative to control; assay type: organism-based; conditions: in vivo, time 3 day
[11] = tested on: GEO; assay: Antitumor activity against human GEO cells xenografted in nude mouse assessed as tumor growth inhibition at 6.25 mg/kg, po administered for 17 days relative to control; assay type: functional; conditions: 408 h, time 17 day, read-out: TGI
[12] = tested on: Rh41; assay: Induction of cell cycle arrest in human Rh41 cells assessed as accumulation of cells at G2/M phase at 10x IC50 incubated for 48 hrs by propidium iodide staining based flow cytometry analysis relative to control; assay type: functional
[13] = Toxicity in nude mouse xenografted with human GEO cells assessed as body weight loss at 25 mg/kg, po administered for 3 days in presence of cetuximab at 0.25 mg/kg relative to control; assay type: organism-based; conditions: in vivo, 72 h, time 3 day
[14] = tested on: GEO; assay: Antitumor activity against human GEO cells xenografted in nude mouse assessed as tumor growth inhibition at 25 mg/kg, po administered for 14 days relative to control; assay type: functional; conditions: 336 h, time 14 day, read-out: TGI
[15] = molecular target: Protein kinase C alpha type (Homo sapiens, UniProt P17252); assay: Inhibition of recombinant PKCalpha (unknown origin) incubated for 60 mins in presence of ATP by electrophoretic caliper fluorescence analysis
[16] = Toxicity in nude mouse xenografted with human GEO cells assessed as body weight loss at 6.25 mg/kg, po administered for 3 days in presence of cetuximab at 0.125 mg/kg relative to control; assay type: organism-based; conditions: in vivo, 72 h, time 3 day
[17] = Toxicity in nude mouse xenografted with human GEO cells assessed as body weight loss at 25 mg/kg, po administered for 17 days; assay type: organism-based; conditions: in vivo, 408 h, time 17 day
[18] = Toxicity in nude mouse xenografted with human GEO cells assessed as body weight loss at 12.5 mg/kg, po administered for 3 days in presence of cetuximab at 0.125 mg/kg relative to control; assay type: organism-based; conditions: in vivo, 72 h, time 3 day
[19] = tested on: Mus musculus; assay: Anti-diabetic activity against nude mouse xenografted with mouse IGF-1R-Sal cells assessed as increased serum glucose level at 3.125 mg/kg, po administered for 2 hrs by oral glucose tolerance test (Rvb= 97.40 +/- 5.0 mg/dl); assay type: functional
[20] = molecular target: High affinity nerve growth factor receptor (Rattus norvegicus, UniProt P35739); assay: Inhibition of TrkA autophosphorylation in rat CD8-TrkA cells by Western blotting analysis; assay type: cell-based
Chain of High affinity nerve growth factor receptor (P35739 whole entry): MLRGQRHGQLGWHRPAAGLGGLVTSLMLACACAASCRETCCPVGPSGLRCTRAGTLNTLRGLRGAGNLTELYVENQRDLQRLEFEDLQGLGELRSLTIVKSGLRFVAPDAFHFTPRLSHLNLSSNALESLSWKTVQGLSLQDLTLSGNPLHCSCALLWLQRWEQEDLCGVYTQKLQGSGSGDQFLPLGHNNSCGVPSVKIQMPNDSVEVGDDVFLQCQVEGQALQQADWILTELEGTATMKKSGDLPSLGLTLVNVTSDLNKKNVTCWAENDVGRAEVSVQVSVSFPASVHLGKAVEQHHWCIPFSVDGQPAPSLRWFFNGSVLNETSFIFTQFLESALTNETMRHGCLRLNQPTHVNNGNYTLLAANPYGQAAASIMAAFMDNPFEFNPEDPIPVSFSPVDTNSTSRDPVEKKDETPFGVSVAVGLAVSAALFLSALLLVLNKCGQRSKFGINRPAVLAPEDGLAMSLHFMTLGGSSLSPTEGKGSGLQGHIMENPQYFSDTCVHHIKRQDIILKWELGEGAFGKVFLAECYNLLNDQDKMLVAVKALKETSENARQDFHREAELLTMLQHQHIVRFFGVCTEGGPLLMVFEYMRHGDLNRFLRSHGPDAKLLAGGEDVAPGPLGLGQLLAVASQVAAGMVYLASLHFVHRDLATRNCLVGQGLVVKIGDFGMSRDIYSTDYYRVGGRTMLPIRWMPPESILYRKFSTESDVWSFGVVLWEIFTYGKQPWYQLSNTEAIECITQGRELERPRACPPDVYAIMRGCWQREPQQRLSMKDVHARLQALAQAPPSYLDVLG

[21] = tested on: GEO; assay: Antitumor activity against human GEO cells xenografted in nude mouse assessed as tumor growth delay time at 25 mg/kg, po administered for 3 days in presence of cetuximab at 0.125 mg/kg relative to control; assay type: functional; conditions: time 3 day
[22] = tested on: GEO; assay: Antitumor activity against human GEO cells xenografted in nude mouse assessed as tumor growth inhibition at 6.25 mg/kg, po administered for 3 days in presence of cetuximab at 0.125 mg/kg relative to control; assay type: functional; conditions: 72 h, time 3 day, read-out: TGI
[23] = Toxicity in nude mouse xenografted with human GEO cells assessed as mortality at 25 mg/kg, po administered for 3 days in presence of cetuximab at 0.125 mg/kg relative to control; assay type: organism-based; conditions: in vivo, time 3 day
[24] = Toxicity in nude mouse xenografted with human GEO cells assessed as body weight loss at 12.5 mg/kg, po administered for 17 days; assay type: organism-based; conditions: in vivo, 408 h, time 17 day
[25] = tested on: COLO 205; assay: Antitumor activity against human COLO 205 cells xenografted in nude mouse assessed as tumor growth inhibition at 50 mg/kg, po administered for 23 days relative to control; assay type: functional; conditions: COLO 205, 552 h, time 23 day, read-out: TGI
[26] = tested on: GEO; assay: Antitumor activity against human GEO cells xenografted in nude mouse assessed as tumor growth inhibition at 25-50 mg/kg, po administered for 14 days relative to control; assay type: functional; conditions: 336 h, time 14 day, read-out: TGI

**Q.** Which TGI [1] does the source give for `C[C@@]1(C(=O)Nc2ccc(F)nc2)CCCN1c1nc(Nc2cc(C3CC3)n[nH]2)c2cccn2n1` [BMS-754807] here?
**A.** Its TGI is 80%.

**Q.** And the inhibition in vivo at 25 mg/kg [2]?
**A.** Its inhibition in vivo at 25 mg/kg is 53%.

**Q.** And the inhibition [3]?
**A.** Its inhibition is “Active”.

**Q.** What about the IC50 [4] of the same compound?
**A.** Its IC50 is over 50 µM.

**Q.** What about the Time [5] of the same compound?
**A.** Its Time is 4 days.

**Q.** And the Activity [6]?
**A.** Its Activity is 95 mg/dL.

**Q.** And the TGI [7]?
**A.** The TGI was 45%.

**Q.** And the Activity [8]?
**A.** The Activity was 2 ng/mL.

**Q.** What about the Activity [9] of the same compound?
**A.** Its Activity is 5.1 ng/mL.

**Q.** What about the mortality at 72 h [10] of the same compound?
**A.** Its mortality at 72 h is 0%.

**Q.** And the inhibition in vivo at 6.25 mg/kg [11]?
**A.** The inhibition in vivo at 6.25 mg/kg was 24%.

**Q.** What about the Activity [12] of the same compound?
**A.** The Activity was 2.8%.

**Q.** What about the Activity [13] of the same compound?
**A.** Its Activity is 1.5 g.

**Q.** And the inhibition in vivo at 25 mg/kg [14]?
**A.** The inhibition in vivo at 25 mg/kg was 56%.

**Q.** What about the IC50 [15] of the same compound?
**A.** Its IC50 is 2.53 µM.

**Q.** What about the Activity [16] of the same compound?
**A.** The Activity was 1.2 g.

**Q.** What about the Activity [17] of the same compound?
**A.** The Activity was -1.5 g.

**Q.** And the Activity [18]?
**A.** Its Activity is 0.4 g.

**Q.** And the Activity [19]?
**A.** Its Activity is 91 mg/dL.

**Q.** And the IC50 [20]?
**A.** The IC50 was 1.02 µM.

**Q.** And the Time [21]?
**A.** Its Time is 21 days.

**Q.** And the inhibition in vivo at 6.25 mg/kg [22]?
**A.** Its inhibition in vivo at 6.25 mg/kg is 79%.

**Q.** And the mortality at 72 h [23]?
**A.** Its mortality at 72 h is 0%.

**Q.** What about the Activity [24] of the same compound?
**A.** Its Activity is -0.8 g.

**Q.** And the inhibition in vivo at 50 mg/kg [25]?
**A.** The inhibition in vivo at 50 mg/kg was 53%.

**Q.** What about the inhibition in vivo at 50 mg/kg [26] of the same compound?
**A.** The inhibition in vivo at 50 mg/kg was 41%.
